{
  "source": "paper PMC4694659",
  "about": "“Biochemical Characterization of Medaka (Oryzias latipes) Transglutaminases, OlTGK1 and OlTGK2, as Orthologues of Human Keratinocyte-Type Transglutaminase” (PLoS ONE, 2015)",
  "key": {"[1]": {"target": "T1, OlTGK1 (Oryzias latipes, UniProt A0A0S3Q197)", "T1 construct": "full-length ORF (2067 bp, 688 residues), N-terminal hexahistidine tag, pET24d, E. coli BL21(DE3)LysS; cDNA cloned from embryonic medaka cDNA library (fish kept: Cab strain)", "T1 sequence (A0A0S3Q197 1-688)": "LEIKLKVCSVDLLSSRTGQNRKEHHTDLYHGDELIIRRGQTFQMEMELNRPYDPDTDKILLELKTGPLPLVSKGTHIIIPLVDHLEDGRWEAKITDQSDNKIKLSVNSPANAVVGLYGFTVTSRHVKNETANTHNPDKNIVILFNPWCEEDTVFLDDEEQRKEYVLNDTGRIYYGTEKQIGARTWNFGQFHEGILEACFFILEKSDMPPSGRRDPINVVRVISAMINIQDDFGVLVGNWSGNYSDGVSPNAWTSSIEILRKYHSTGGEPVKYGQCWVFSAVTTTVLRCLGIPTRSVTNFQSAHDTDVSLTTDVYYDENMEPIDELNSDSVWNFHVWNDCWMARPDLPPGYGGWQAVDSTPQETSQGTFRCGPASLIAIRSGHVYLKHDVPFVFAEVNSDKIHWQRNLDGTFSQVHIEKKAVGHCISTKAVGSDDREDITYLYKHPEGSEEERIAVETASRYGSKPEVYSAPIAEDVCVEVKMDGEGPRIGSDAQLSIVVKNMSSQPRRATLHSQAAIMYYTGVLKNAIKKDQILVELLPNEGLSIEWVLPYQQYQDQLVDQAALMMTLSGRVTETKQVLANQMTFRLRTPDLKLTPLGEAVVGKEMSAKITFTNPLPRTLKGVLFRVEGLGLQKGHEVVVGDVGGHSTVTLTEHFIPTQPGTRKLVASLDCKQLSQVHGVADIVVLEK", "assay": "microplate transamidation: incorporation of bio-Cd into coated beta-casein, streptavidin-peroxidase read-out", "type": "biochemical", "details": "amine acceptor substrate; co-substrate beta-casein (coated); CaCl2; Tris-Cl pH 8.0; 25 °C; 20 min; labelled compound"}, "[2]": {"target": "T2, OlTGK2 (Oryzias latipes, UniProt A0A0S3Q1B1)", "T2 construct": "full-length ORF (2340 bp, 778 residues as printed), N-terminal hexahistidine tag, pET24d, E. coli BL21(DE3)LysS; NBRP cDNA clone olsp48d24 (fish kept: Cab strain)", "T2 sequence (A0A0S3Q1B1 1-779)": "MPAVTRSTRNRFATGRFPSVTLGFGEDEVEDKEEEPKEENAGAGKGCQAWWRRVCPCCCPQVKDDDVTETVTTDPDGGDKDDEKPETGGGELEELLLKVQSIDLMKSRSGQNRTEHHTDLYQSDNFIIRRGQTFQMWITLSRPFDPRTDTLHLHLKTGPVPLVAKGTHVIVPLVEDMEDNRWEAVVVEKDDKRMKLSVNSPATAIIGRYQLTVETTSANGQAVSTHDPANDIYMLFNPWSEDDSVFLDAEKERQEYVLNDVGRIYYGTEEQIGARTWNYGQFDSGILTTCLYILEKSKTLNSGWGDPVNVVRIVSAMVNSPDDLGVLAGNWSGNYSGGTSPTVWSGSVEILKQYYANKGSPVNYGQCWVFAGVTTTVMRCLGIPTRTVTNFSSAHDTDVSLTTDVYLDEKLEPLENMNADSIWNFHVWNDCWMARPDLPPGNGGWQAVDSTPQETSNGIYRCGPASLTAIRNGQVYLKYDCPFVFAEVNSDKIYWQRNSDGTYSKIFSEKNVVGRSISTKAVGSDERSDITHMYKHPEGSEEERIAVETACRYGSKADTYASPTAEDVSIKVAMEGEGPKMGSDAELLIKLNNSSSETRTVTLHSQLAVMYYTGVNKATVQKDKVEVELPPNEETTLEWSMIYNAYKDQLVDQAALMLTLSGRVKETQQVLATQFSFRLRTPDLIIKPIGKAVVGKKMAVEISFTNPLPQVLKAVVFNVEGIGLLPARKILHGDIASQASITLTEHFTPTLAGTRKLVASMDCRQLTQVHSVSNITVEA", "assay": "microplate transamidation: incorporation of bio-Cd into coated beta-casein, streptavidin-peroxidase read-out", "type": "biochemical", "details": "amine acceptor substrate; co-substrate beta-casein (coated); CaCl2; Tris-Cl pH 8.0; 25 °C; 20 min; labelled compound"}},
  "data": [
    {"smiles": "NCCCCCNC(=O)CCCC[C@@H]1SC[C@@H]2NC(=O)N[C@@H]21", "note": "[bio-Cd]", "values": [
      {"measurement": "microplate transamidation: incorporation of bio-Cd into coated beta-casein, stre", "setting": "[1]", "value": "apparent incorporation was observed in the presence of three-different amounts of OlTGK1 and OlTGK2"},
      {"measurement": "microplate transamidation: incorporation of bio-Cd into coated beta-casein, stre", "setting": "[2]", "value": "apparent incorporation was observed in the presence of three-different amounts of OlTGK1 and OlTGK2"}
    ]}
  ]
}
